The values below come from patent US5939437A, “CCK and gastrin receptor ligands” (James Black Foundation Limited, priority 1994, dated 1999).

Experiment [1] has as its target T1, Gastrin (Rattus norvegicus, UniProt P30553).
T1 construct: The stomach was excised and flushed with ca. 1 ml unbuffered physiological saline solution; from tissue; host or cells: isolated whole stomach of immature rats (33-50 g, ca. 21 days old)
T1 sequence (P30553 1-452): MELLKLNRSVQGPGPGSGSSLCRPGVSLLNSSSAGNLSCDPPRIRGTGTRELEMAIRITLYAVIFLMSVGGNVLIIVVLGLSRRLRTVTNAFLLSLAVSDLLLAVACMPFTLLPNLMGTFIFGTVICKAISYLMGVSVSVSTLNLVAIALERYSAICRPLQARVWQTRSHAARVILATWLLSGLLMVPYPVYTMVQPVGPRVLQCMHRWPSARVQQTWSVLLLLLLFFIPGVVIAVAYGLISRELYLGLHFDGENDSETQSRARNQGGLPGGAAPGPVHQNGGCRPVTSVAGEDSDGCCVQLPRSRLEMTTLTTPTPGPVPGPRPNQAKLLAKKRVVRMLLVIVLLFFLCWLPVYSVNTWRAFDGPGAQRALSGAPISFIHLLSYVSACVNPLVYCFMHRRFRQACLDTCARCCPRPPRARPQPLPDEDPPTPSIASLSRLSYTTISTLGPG
Put plainly: gastrin antagonist activity in an immature rat stomach assay (pentagastrin-stimulated acid secretion, isolated stomach). Conditions: cumulative pentagastrin dose-response curves, 60 min after drug; for Kb: read-out: Gastrin pKB (converted). As to the method: The compounds of the examples were also tested for gastrin antagonist activity in an immature rat stomach assay. The procedure was follows:
The oesophagus of immature rats (33-50 g, ca. 21 days old) was ligated at the level of the cardiac sphincter and the duodenal sphincter was cannulated. The stomach was excised and flushed with ca. 1 ml unbuffered physiological saline solution. The fundus was punctured and cannulated. A further 4-5 ml of unbuffered solution was flushed through the stomach to ensure the preparation was not leaking. The stomach was lowered into a jacketed organ bath containing 40 ml of buffered solution containing 3×10^-8 M5methylfurmethide, maintained at 37° and gassed vigorously with 95% O2 /5% CO2. The stomach was continuously perfused at a rate of 1 ml min^-1 with unbuffered solution gassed with 100% O2 with the perfusate passing over an internally referenced pH-electrode fixed 12 cm above the stomach.
After 120 min of stabilisation the drugs were added directly to the serosal solution in the organ bath and after a further 60 min cumulative pentagastrin dose-response curves were started. Changes in acid secretion were monitored and the curves analysed according to Black et. al., Br. J. Pharmacol., 1985, 86, 581.

Experiment [2] concerns the target T2, CCKB (Mus musculus, UniProt P56481).
T2 construct: The cortex was dissected, weighed and homogenised in 40 ml ice-cold buffer; from tissue; host or cells: cerebral cortex membranes of male CD1 mice (Charles River)
T2 sequence (P56481 1-453): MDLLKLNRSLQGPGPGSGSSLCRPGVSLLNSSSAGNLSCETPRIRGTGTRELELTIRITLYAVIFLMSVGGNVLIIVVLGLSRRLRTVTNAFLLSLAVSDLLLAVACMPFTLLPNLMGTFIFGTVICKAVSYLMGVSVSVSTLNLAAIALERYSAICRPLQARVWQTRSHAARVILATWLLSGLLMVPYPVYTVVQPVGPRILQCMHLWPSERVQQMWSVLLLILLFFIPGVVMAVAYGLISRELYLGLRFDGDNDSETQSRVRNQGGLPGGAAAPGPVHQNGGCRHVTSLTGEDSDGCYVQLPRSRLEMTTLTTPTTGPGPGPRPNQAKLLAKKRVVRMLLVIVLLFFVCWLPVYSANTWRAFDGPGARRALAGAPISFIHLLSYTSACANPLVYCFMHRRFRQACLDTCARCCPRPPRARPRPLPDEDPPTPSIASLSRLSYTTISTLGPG
The experiment is described as follows: radioligand binding assay at the CCKB (CCK8 [sic]) receptor in mouse cortical membranes. To be noted: [125I]-CCK8S 200 pM, 150 min at 21±3° C.; for Ki: read-out: CCKB pKi (converted). As to the method:
The compounds of the examples were tested for binding at the CCK8 receptor in mouse cortical membranes by means of a radioligand binding assay. The procedure was as follows: The whole brains from male mice (CD1 22-25 g; Charles River) were removed and placed in ice-cold buffer (pH7.2@21±3° C.) of the following composition (mM); 10 HEPES, 130 NaCl, 4.7 KCl, 5 MgCl2, 1 EDTA and containing 0.25 g.1^-1 bacitracin. The cortex was dissected, weighed and homogenised in 40 ml ice-cold buffer using a Teflon-in-glass homogeniser. The homogenate was centrifuged at 39,800 g for 20 min at 4° C., the supernatant discarded and the pellet resuspended by homogenisation in fresh buffer. The homogenate was recentrifuged (39,800 g; 20 min@4° C.) and the final pellet was resuspended in HEPES buffer to give a tissue concentration of 2 mg.ml^-1 (original wet weight). The membranes ([…]) were incubated for 150 min at 21±3° C. in a final volume of 0.5 ml with HEPES buffer containing [^25 I]-CCK8S (0.05 ml; 200 pM NEN 2200 Ci.mmol^-1) and competing compound. Total and non-specific binding of [^125 I]-CCK8S were defined using 0.05 ml of buffer and 0.05 ml of […] L-365,260, respectively. The assay was terminated by rapid filtration through pre-soaked Whatman GF/B 35 filters using a Brandell Cell harvester. The filters were washed (3×3 ml) with ice-cold 5 mM Tris-HCl (pH7.4@4° C.) and bound radioactivity determined by counting (1 min.) in a gamma-counter.

Experiment [3] addresses T3, CCKA (Cavia porcellus, UniProt Q63931).
T3 construct: The pancreatata were homogenised in 40 ml ice-cold HEPES buffer; from tissue; host or cells: pancreas membranes of male Dunkin Hartley guinea-pigs
T3 sequence (Q63931 1-430): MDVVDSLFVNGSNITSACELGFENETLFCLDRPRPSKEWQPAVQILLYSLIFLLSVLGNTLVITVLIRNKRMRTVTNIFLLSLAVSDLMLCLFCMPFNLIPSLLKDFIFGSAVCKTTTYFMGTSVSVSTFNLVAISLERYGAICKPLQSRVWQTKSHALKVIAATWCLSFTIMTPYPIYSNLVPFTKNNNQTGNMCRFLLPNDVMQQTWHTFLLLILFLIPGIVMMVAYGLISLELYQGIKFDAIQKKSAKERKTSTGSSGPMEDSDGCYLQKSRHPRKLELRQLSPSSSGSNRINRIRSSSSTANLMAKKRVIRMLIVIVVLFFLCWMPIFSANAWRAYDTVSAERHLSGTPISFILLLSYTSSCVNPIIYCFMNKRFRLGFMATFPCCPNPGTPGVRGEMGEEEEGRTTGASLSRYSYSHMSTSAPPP
Put plainly: CCKA binding assay (guinea-pig pancreas membranes). Conditions: [125I]-CCK8(S) 200 pM, 0.375 μM PD134,308 present, 150 minutes at 21±3° C.; for Ki: read-out: CCKA pKi (converted). As to the method: The compounds of the examples were also tested in a CCKA binding assay as follows:
The pancreatata were removed from male guinea-pigs (200-300 g; Dunkin Hartley) and placed in ice-cold HEPES buffer (pH 7.2@21 ±3° C.). The pancreatata were homogenised in 40 ml ice-cold HEPES buffer using a polytron (Brinkman, PT10, setting 10) 4×1 second. The homogenate was centrifuged at 39,800 g for 15 min at 4° C. The supernatant was discarded and the pellet re-suspended using a Teflon-in-glass homogeniser in 20 volumes of fresh buffer and re-centrifuged as above. The final pellet was re-suspended using a Teflon-in-glass homogeniser to a tissue concentration of 1 mg.ml^-1 (original wet weight), and filtered through 500 μm pore-size Nytex mesh.
The membranes (400 μl; containing 0.375 μM PD134,308) are incubated for 150 minutes at 21±3° C. in a final volume of 0.5 ml with HEPES buffer containing [^125 I]-CCK8 (S) (50 μl; 200 pM) and competing compound. Total and non-specific binding of [^125 I]-CCK^8 (S) are defined using 50 μl of buffer and 50 μl of 100 nM L-364,718respectively. The assay is terminated by rapid filtration through pre-soaked Whatman GF/B filters using a Brandell Cell Harvester. The filters were washed (3×3 ml) with ice-cold 50 mM Tris HCl (pH 7.4 at 4° C. and bound radioactivity is determined by counting (1 min) in a gamma counter.

Consider `O=C(O)c1cc(NC(=O)[C@H](Cc2ccccc2)NC(=O)c2ccccc2C(=O)NCC23CC4CC(CC(C4)C2)C3)cc(C(=O)O)c1` [Example 1, (1S-(3,5-dicarboxyphenylaminocarbonyl)-2-phenylethylaminocarbonyl)-2-(1-adamantanemethylaminocarbonyl)-benzene], for which the Kb in experiment [1] is 0.00398 µM. Further, the Ki in experiment [2] was 0.0794 µM. Moreover, the “CCKA pKi” value in experiment [3] was found to be 5.5.

On to `O=C(O)c1cc(NC(=O)[C@H](Cc2ccc(O)cc2)NC(=O)c2ccccc2C(=O)NCC23CC4CC(CC(C4)C2)C3)cc(C(=O)O)c1` [Example 2, (1S-(3,5-dicarboxyphenylaminocarbonyl)-2-(4-hydroxyphenyl)-ethylaminocarbonyl)-2-(1-adamantanemethyl-aminocarbonyl)-benzene], for which, in experiment [1], the Kb is 0.0251 µM. Moreover, the figures for the Ki in experiment [2] and in experiment [3] were 1.26 µM and 1.58 µM, respectively.

On to `O=C(O)c1cc(NC(=O)[C@@H](Cc2ccccc2)NC(=O)c2ccccc2C(=O)NCC23CC4CC(CC(C4)C2)C3)cc(C(=O)O)c1` [Example 3, (1R-(3,5-dicarboxyphenylaminocarbonyl)-2-phenylethylaminocarbonyl)-2-(1-adamantanemethylaminocarbonyl)-benzene], for which the Kb in experiment [1] is 0.0158 µM. The figures for the Ki in experiment [2] and in experiment [3] were 0.398 µM and 7.94 µM, respectively.

As for `O=C(O)c1cc(NC(=O)[C@H](Cc2ccccc2F)NC(=O)c2ccccc2C(=O)NCC23CC4CC(CC(C4)C2)C3)cc(C(=O)O)c1` [Example 4], the “Gastrin pKB” value in experiment [1] is on record as 7.7. For the same molecule, in experiment [2], the “CCKB pKi” value came to 7.0. The “CCKA pKi” value in experiment [3] stood at 5.3.

For `O=C(O)c1cc(NC(=O)[C@H](Cc2ccccc2)NC(=O)c2ccccc2C(=O)NCc2ccc3ccccc3c2)cc(C(=O)O)c1` [Example 6, (1R-(3,5-dicarboxyphenylaminocarbonyl)-2-phenylethylaminocarbonyl)-2-(2-naphthalenemethylaminocarbonyl)-benzene], the “Gastrin pKB” value in experiment [1] was 6.1. In addition, the “CCKB pKi” value in experiment [2] is 6.3. Moreover, the “CCKA pKi” value in experiment [3] worked out at 6.3.

Turning to `O=C(O)c1cc(NC(=O)[C@H](Cc2ccccc2)NC(=O)c2ccccc2C(=O)NCC2CCCCCC2)cc(C(=O)O)c1` [Example 7, (1R-(3,5-dicarboxyphenylaminocarbonyl)-2-phenylethylaminocarbonyl)-2-(cycloheptanemethylaminocarbonyl)-benzene], the “Gastrin pKB” value in experiment [1] was found to be 6.3. Also, in experiment [2], the “CCKB pKi” value stood at 6.5. For the same molecule, the “CCKA pKi” value in experiment [3] was found to be 5.9.

For `O=C(O)c1cc(NC(=O)[C@H](Cc2ccccc2)NC(=O)c2ncccc2C(=O)NCC23CC4CC(CC(C4)C2)C3)cc(C(=O)O)c1` [Example 10, 2-(1S-(3,5-dicarboxyphenylamino-carbonyl)-2-phenylethylaminocarbonyl)-3-(1-adamantanemethylamino-carbonyl)pyridine], in experiment [1], the Kb was 0.0398 µM. The Ki in experiment [2] is 0.794 µM; in experiment [3], 2 µM.

`O=C(O)c1cc(NC(=O)[C@H](Cc2ccccc2)NC(=O)c2cocc2C(=O)NCC23CC4CC(CC(C4)C2)C3)cc(C(=O)O)c1` [Example 12, 3-(1S-(3,5-dicarboxyphenylamino-carbonyl)-2-phenylethylaminocarbonyl)-4-(1-adamantanemethyl-aminocarbonyl)furan]: the “Gastrin pKB” value in experiment [1] was determined as 6.5. In experiment [2], the “CCKB pKi” value came to 6.3. The “CCKA pKi” value in experiment [3] was 5.2.

Turning to `O=C(O)c1cc(NC(=O)[C@H](Cc2ccccc2)NC(=O)c2c[nH]cc2C(=O)NCC23CC4CC(CC(C4)C2)C3)cc(C(=O)O)c1` [Example 13, 3-(1S-(3,5-dicarboxyphenylamino-carbonyl)-2-phenylethylaminocarbonyl)-4-(1-adamantanemethylamino-carbonyl)pyrrole], the Kb in experiment [1] was 0.0251 µM. In addition, the Ki in experiment [2] is 0.0631 µM; in experiment [3], 2 µM.

On to `O=C(O)c1cc(NC(=O)[C@H](Cc2ccccc2)N2Cc3cccc(C(=O)NCC45CC6CC(CC(C6)C4)C5)c3C2=O)cc(C(=O)O)c1` [Example 27, 7-(1-adamantanemethylaminocarbonyl)-2-(1S-(3,5-dicarboxyphenylaminocarbonyl)-2-phenylethyl) indol-1-one], for which the Ki was 0.126 µM in experiment [2] and 3.16 µM in experiment [3].
